Assay results as given in PubChem BioAssay (NCI).
“And” between values parts separate entries of the source, which are not always exact repeats. Identical values can stand only once.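 These data come from cells grown in 96-well plates and exposed to compound for 48 hours at five concentrations. Here, GI50 denotes the concentration required for 50% inhibition of growth. TGI: total growth inhibition.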

Key:
Assay in all cases: NCI-60 cell line screen, 48 h
[1] = tested on: CAKI-1 renal
[2] = tested on: CCRF-CEM leukemia
[3] = tested on: DU-145 prostate
[4] = tested on: HCT-15 colon
[5] = tested on: IGROV1 ovarian
[6] = tested on: KM12 colon
[7] = tested on: LOX IMVI melanoma
[8] = tested on: MALME-3M melanoma
[9] = tested on: MDA-MB-231 breast
[10] = tested on: MDA-N
[11] = tested on: OVCAR-3 ovarian
[12] = tested on: UACC-257 melanoma

Row | Compound | TGI [1] | TGI [2] | TGI [3] | TGI [4] | TGI [5] | TGI [6] | TGI [7] | TGI [8] | TGI [9] | TGI [10] | TGI [11] | TGI [12] | GI50 [1] | GI50 [3] | GI50 [4] | GI50 [5] | GI50 [9] | GI50 [11] | GI50 [12]
1 | COC(C/C(=C/CO[Si](C(C)C)(C(C)C)C(C)C)C(=O)Nc1ccccc1I)OC | > 100 µM | > 100 µM | > 100 µM | 71.1 µM | 28.7 µM | > 100 µM | 45.5 µM | 31.8 µM | 46 µM | > 100 µM | 51.8 µM | > 100 µM |  |  |  |  |  |  | 
2 | COc1ccc2c(c1)N(C(C)=O)CN1C(=O)CCC21 (stereo unspecified) | > 100 µM | > 100 µM | > 100 µM | > 100 µM | > 100 µM | > 100 µM | > 100 µM | > 100 µM | > 100 µM | > 100 µM | > 100 µM | > 100 µM |  |  |  |  |  |  | 
3 | COC(=O)/C(C#N)=C1\NC(=O)CC(c2ccccc2)C1C#N (stereo unspecified) | > 100 µM | > 100 µM | > 100 µM | > 100 µM | > 100 µM | > 100 µM | > 100 µM | > 100 µM | > 100 µM | > 100 µM | > 100 µM | > 100 µM |  |  |  |  |  |  | 
4 | CN(C)CCOC1(Cc2ccc(Cl)cc2Cl)CCC(C(C)(C)C)CC1 (stereo unspecified) | 4.35 µM and 10.6 µM | 4.69 µM and 5.32 µM | 5.91 µM and 6.45 µM | 3.44 µM and 3.06 µM | 6.33 µM and 3.25 µM | 3.27 µM and 3.36 µM | 2.97 µM and 3.06 µM | 4.41 µM and 3.24 µM | 8.16 µM and 3.34 µM | 3.31 µM | 3.07 µM and 3.92 µM | 3.75 µM and 3.24 µM | 5.18 µM | 1.89 µM and 2.68 µM | 1.57 µM | 2.38 µM | 3.39 µM | 2.03 µM | 1.64 µM
5 | Cc1[nH]n(-c2nc3c(c(=O)[nH]2)CCC3)c(=O)c1CCO | > 100 µM | > 100 µM | > 100 µM | > 100 µM | > 100 µM | > 100 µM | > 100 µM | > 100 µM | > 100 µM | > 100 µM | > 100 µM | > 100 µM |  |  |  |  |  |  | 
6 | Cn1cnc2c(OCC3CCCCC3)nc(N)nc21 | > 100 µM | > 100 µM | > 100 µM | > 100 µM | > 100 µM | > 100 µM | > 100 µM | > 100 µM | > 100 µM | > 100 µM | > 100 µM | > 100 µM |  |  |  |  |  |  | 
7 | O=C1SC(c2ccc(Cl)cc2)(c2ccc(Cl)cc2)c2ccccc21 | > 100 µM | > 100 µM | > 100 µM | > 100 µM | > 100 µM | > 100 µM | > 100 µM | > 100 µM | > 100 µM | > 100 µM | > 100 µM | > 100 µM |  |  |  |  |  |  | 
8 | CCCCCC(=O)OCC(=O)[C@H]1[C@H](C)C[C@H]2[C@@H]3C[C@H](F)C4=C/C(=N/OC(=O)c5cccc6c(=O)c7ccccc7[nH]c56)C=C[C@]4(C)[C@H]3[C@@H](O)C[C@@]21C | > 100 µM | > 100 µM | > 100 µM | > 100 µM | > 100 µM | 27.3 µM | 35.7 µM | 33.2 µM | > 100 µM | 76.8 µM | 65.5 µM | 62 µM |  |  |  |  |  |  | 
9 | C/C(=N\NS(=O)(=O)c1ccc(C)cc1)C(CN(C)C)C(c1ccccc1)c1c(O)c2ccccc2oc1=O (stereo unspecified) | > 100 µM | > 100 µM | > 100 µM | > 100 µM | > 100 µM | > 100 µM | > 100 µM | > 100 µM | > 100 µM | > 100 µM | > 100 µM | > 100 µM |  |  |  |  |  |  | 
10 | O=[N+]([O-])/C(Cl)=C(\Nc1ccccc1)C(Cl)=C(Cl)Cl | > 100 µM | 42.9 µM | > 100 µM | 66.6 µM | 79 µM | 32 µM | 88.5 µM | 45.9 µM | 79.6 µM | > 100 µM | 40.7 µM | > 100 µM |  |  |  |  |  |  | 
11 | C[C@H]1C(OCCOC2O[C@@H]3O[C@@]4(C)CC[C@H]5[C@H](C)CCC([C@H]2C)[C@@]35O4)O[C@@H]2O[C@@]3(C)CC[C@H]4[C@H](C)CCC1[C@@]24O3 (stereo partly specified) | > 100 µM | 82.5 µM | 74.3 µM | > 100 µM | 90.6 µM | > 100 µM | 57.5 µM | 41.5 µM | 75.1 µM | > 100 µM | > 100 µM | > 100 µM |  |  |  |  |  |  | 
12 | COc1ccc(C2SC(N)=Nc3c2c(C)nn3C(=O)c2ccc(Cl)cc2)cc1 (stereo unspecified) | > 10 µM | > 10 µM | > 10 µM | > 10 µM | > 10 µM | > 10 µM | > 10 µM | > 10 µM | > 10 µM | > 10 µM | > 10 µM | > 10 µM |  |  |  |  |  |  | 
13 | COc1cc(/C=C2/SC(c3ccccc3)N(c3ccc(Cl)cc3)C2=O)cc(OC)c1OC (stereo unspecified) | > 100 µM | > 44.8 µM | > 100 µM | > 100 µM | > 100 µM | > 100 µM | > 100 µM | > 100 µM | > 100 µM | 31.8 µM | > 100 µM | > 100 µM |  |  |  |  |  |  | 
14 | COc1ccc(-c2c3c(n(C4OC(CO)C(O)C(O)C4O)c(=S)c2C#N)CC(C)(C)CC3=O)cc1 (stereo unspecified) | > 100 µM | > 100 µM | > 100 µM | > 100 µM | > 100 µM | > 100 µM | > 100 µM | > 100 µM | > 100 µM | > 100 µM | > 100 µM | > 100 µM |  |  |  |  |  |  | 
15 | OCCSCc1cc2c(O)c(c1)Cc1cc(CSCCO)cc(c1O)Cc1cc(CSCCO)cc(c1O)Cc1cc(CSCCO)cc(c1O)C2 | 9.63 µM | 68.2 µM | 23.5 µM | 33 µM | 10.9 µM | 17.1 µM | 11.9 µM | 5.88 µM | 7.21 µM | 11.8 µM | 4.27 µM | 27.7 µM |  |  |  |  |  |  | 
16 | CCC(CC)C(=O)OC[n+]1cccc(-c2c(COC(=O)NC(C)C)c(COC(=O)NC(C)C)c3n2CCC3)c1 | > 100 µM | > 100 µM | > 100 µM | > 100 µM | > 100 µM | > 100 µM | > 100 µM | > 100 µM | > 100 µM | > 100 µM | > 100 µM | > 100 µM |  |  |  |  |  |  | 
17 | CN1CC2=C(NC(=S)NC2c2ccc(Cl)cc2)/C(=C/c2ccc(Cl)cc2)C1 (stereo unspecified) | 32.4 µM | 30.9 µM | 30.5 µM | 37.5 µM | 32.6 µM | 38.2 µM | 35.8 µM | 36.8 µM | 39.8 µM | 34.9 µM | 29.3 µM | 43.2 µM |  |  |  |  |  |  | 
